Assay results from patent publication US20100035911A1, “DRUG COMBINATIONS TO TREAT HYPERPROLIFERATIVE DISORDERS” (priority 2006, published 2010).

What was measured:
[1] = system: human neuroblastoma cell line CHLA-136; experiment: Event-free survival of mice bearing CHLA-136 subcutaneous xenografts; type: in vivo, nu/nu mice; conditions: CHLA-136 xenograft; single agents at the drug doses employed
From the text: Treating cancer in xenografts with fenretinide+ABT-751. Administration of fenretinide and ABT-751 in combination to nu/nu mice bearing subcutaneous xenografts of multi-drug resistant neuroblastoma xenografts (tumor cell lines are described in: Keshelava N, Zuo J J, Chen P, Waidyaratine S N, Luna M C, Gomer C J, Triche T J, Reynolds C P: Loss of p53 function confers high-level multi-drug resistance in neuroblastoma cell lines. Cancer Research 61:6185-6193, 2001, and xenograft methods are described in: Reynolds, C P, Sun B C, DeClerck Y A, Moats R A: Assessing growth and response to therapy in murine tumor models. Methods in Molecular Medicine Chemosensitivity Vol 2 ed. Blumenthal R D, Totowa: Humana Press pp 335-350, 2005.
Mice were treated daily with ABT-751, and twice daily with fenretinide for 5 days/week. Fenretinide was given as a powder LXS formulation mixed with water (Maurer B J, Kalous O, Yesair D W, Wu X, Vratilova J, Maldonado V, Khankaldyyan V, Frgala T, Sun B C, McKee R T, Burgess S W, Shaw W A, Reynolds C P. Improved oral delivery of N-(4-hydroxyphenyl)retinamide with novel LYM-X-SORB™ organized lipid complex in mice. Clinical Cancer Research (In Press, 2007)). Both drugs were given to mice by gavage.

[2] = system: human Ramos Burkitts lymphoma cell line; experiment: Survival of mice bearing Ramos lymphoma subcutaneous xenografts; type: in vivo; conditions: single agents at the drug doses employed
Procedure: Treating lymphoma xenografts with fenretinide combined with vincristine. […] Testing of fenretinide+vincristine was carried out as described for fenretinide+ABT-751 in Example 1, except that vincristine was given by i.p. injection twice a week during the 5 day administration of fenretinide.

[3] = system: human ovarian cancer cell line, CRL-1572; experiment: Survival of mice bearing CRL-1572 ovarian cancer subcutaneous xenografts; type: in vivo; conditions: CRL-1572 xenografts; single agents at the drug doses employed
From the text: Fenretinide combined with taxanes is active against ovarian cancer Xenografts. Based on the surprising and favorable results observed when combining ABT-751 with fenretinide with neuroblastoma xenografts and vincristine with fenretinide for a lymphoma xenograft, we explored other types of cancer as xenografts and we also sought to test taxanes for a possible increase in activity when combined with fenretinide.

[4] = cited from earlier work

| Compound | response of xenograft to single agent [1] | response of tumor cell line to single agent [2] | response of tumor cell line to single agent [3] | solubility in aqueous solution [4] |
| --- | --- | --- | --- | --- |
| COc1ccc(S(=O)(=O)Nc2cccnc2Nc2ccc(O)cc2)cc1 [ABT-751] | minimally response |  |  |  |
| CC1=C(/C=C/C(C)=C/C=C/C(C)=C/C(=O)Nc2ccc(O)cc2)C(C)(C)CCC1 [fenretinide, all-trans-N-(4-hydroxyphenyl)retinamide] | minimally response | minimally responsive | minimally responsive | minimally soluble |
| CC(=O)O[C@H]1C(=O)[C@@]2(C)[C@H]([C@H](OC(=O)c3ccccc3)[C@]3(O)C[C@H](OC(=O)[C@H](O)[C@@H](NC(=O)c4ccccc4)c4ccccc4)C(C)=C1C3(C)C)[C@]1(OC(C)=O)CO[C@@H]1C[C@@H]2O [paclitaxel] |  |  | minimally responsive |  |
| vincristine |  | minimally responsive |  |  |
